In patent publication US8163778B2 (Hoffmann-LA Roche Inc., priority 2007, dated 2012):

target: T1, human liver FBPase (Homo sapiens, UniProt P09467); assay: FBPase assay (malachite green phosphate release); format: biochemical; details: recombinant human liver FBPase, 50 μM fructose-1,6-bisphosphate
T1 construct: made in house; host or cells: E. coli
T1 sequence (P09467 2-338 limits assumed): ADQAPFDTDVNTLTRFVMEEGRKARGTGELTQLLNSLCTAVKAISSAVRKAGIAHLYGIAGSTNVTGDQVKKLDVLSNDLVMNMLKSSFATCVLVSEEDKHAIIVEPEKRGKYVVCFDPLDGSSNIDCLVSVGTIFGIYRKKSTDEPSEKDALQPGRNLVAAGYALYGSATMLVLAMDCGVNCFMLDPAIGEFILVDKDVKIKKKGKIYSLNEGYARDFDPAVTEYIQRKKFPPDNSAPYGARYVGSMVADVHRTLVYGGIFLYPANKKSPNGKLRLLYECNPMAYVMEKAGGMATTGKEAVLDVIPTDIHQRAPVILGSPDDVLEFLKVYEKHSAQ
Summary of the method: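 Recombinant human liver FBPase (E. coli-expressed, heat-treated, purified) reacted with 50 μM fructose-1,6-bisphosphate in pH 7.2 HEPES, 2 mM MgCl2, 1% DMSO, 50 min at room temperature. Released phosphate quantified with malachite green/ammonium molybdate reagent at 620 nm.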

| SMILES | IC50 |
| --- | --- |
| CSc1cc(N)nc(NC(=O)NS(=O)(=O)c2coc3ccc(Br)cc23)c1 [Compound 87, N-{[6-Amino-4-(methylthio)pyridin-2-yl]carbamoyl}-5-bromo-1-benzofuran-3-sulfonamide] | 4760 nM |
| COCCc1sc(S(=O)(=O)NC(=O)Nc2cc(SC)cc(C(=O)O)n2)cc1C [Compound 88, Sodium-6-[({[5-(2-methoxyethyl)-4-methyl-2-thienyl]sulfonyl}carbamoyl)amino]-4-(methylthio)pyridine-2-carboxylate] | 55400 nM |
| COC(=O)c1cc(C(F)(F)F)cc(NC(=O)NS(=O)(=O)c2cc(C)c(CCOC(C)=O)s2)n1 [Compound 92, Methyl-6-[({[5-(2-acetoxyethyl)-4-methyl-2-thienyl]sulfonyl}carbamoyl)amino]-4-(trifluoromethyl)pyridine-2-carboxylate] | 1610 nM |
| COCCc1sc(S(=O)(=O)NC(=O)Nc2cc([S+](C)[O-])cc(NC(N)=O)n2)cc1C (centres unmarked) [Compound 95, N-{[6-(Carbamoylamino)-4-(methylsulfinyl)pyridin-2-yl]carbamoyl}-5-(2-methoxyethyl)-4-methylthiophene-2-sulfonamide] | 5080 nM |
| CNC(=O)c1cc(C(F)(F)F)cc(NC(=O)NS(=O)(=O)c2cc(C)c(CCO)s2)n1 [Compound 97, Methyl-6-[({[5-(2-hydroxyethyl)-4-methyl-2-thienyl]sulfonyl}carbamoyl)amino]-4-(trifluoromethyl)pyridine-2-carboxamide] | 278 nM |
| CCOC(=O)c1cc(N)nc(NC(=O)NS(=O)(=O)c2cc(C)c(CCOC)s2)c1 [Compound 100, Ethyl-2-amino-6-[({[5-(2-methoxyethyl)-4-methyl-2 thienyl]sulfonyl}carbamoyl)amino]isonicotinate] | 3410 nM |
| CNC(=O)Nc1cc(C(N)=O)cc(NC(=O)NS(=O)(=O)c2cc(C)c(CCOC)s2)n1 [Compound 101, 2-[({[5-(2-Methoxyethyl)-4-methyl-2-thienyl]sulfonyl}carbamoyl)amino]-6-[(methylcarbamoyl)amino]isonicotinamide] | > 100000 nM |
| COCCc1sc(S(=O)(=O)NC(=O)Nc2cc(C(N)=O)cc(N)n2)cc1C [Compound 102, 2-Amino-6-[({[5-(2-methoxyethyl)-4-methyl-2-thienyl]sulfonyl}carbamoyl)amino]isonicotinamide] | 42000 nM |
| CNC(=O)Nc1cc(C(=O)NC)cc(NC(=O)NS(=O)(=O)c2cc(C)c(CCOC)s2)n1 [Compound 103, 2-[({[5-(2-Methoxyethyl)-4-methyl-2-thienyl]sulfonyl}carbamoyl)amino]-N-methyl-6-[(methylcarbamoyl)amino]isonicotinamide] | 5700 nM |
| CNC(=O)c1cc(N)nc(NC(=O)NS(=O)(=O)c2cc(C)c(CCOC)s2)c1 [Compound 104, 2-Amino-6-[({[5-(2-methoxyethyl)-4-methyl-2-thienyl]sulfonyl}carbamoyl)amino]-N-methylisonicotinamide] | > 100000 nM |
| COCCc1sc(S(=O)(=O)NC(=O)Nc2cc(C(N)=NO)cc(N)n2)cc1C [Compound 108, 2-Amino-N′-hydroxy-6-[({[5-(2-methoxyethyl)-4-methyl-2-thienyl]sulfonyl}carbamoyl)amino]pyridine-4-carboximidamide] | 16000 nM |
| COCCc1sc(S(=O)(=O)NC(=O)Nc2cc(-c3noc(C)n3)cc(N)n2)cc1C [Compound 110, N-{[6-Amino-4-(5-methyl-1,2,4-oxadiazol-3-yl)pyridin-2-yl]carbamoyl}-5-(2-methoxyethyl)-4-methylthiophene-2-sulfonamide] | 16400 nM |
| COCCc1sc(S(=O)(=O)NC(=O)Nc2cc(SC)cc(C(N)=NO)n2)cc1C [Compound 115, N′-Hydroxy-6-[({[5-(2-methoxyethyl)-4-methyl-2-thienyl]sulfonyl}carbamoyl)amino]-4-(methylthio)pyridine-2-carboximidamide] | 2780 nM |

The next lines start with the values.

| IC50 | SMILES |
| --- | --- |
| 756 nM | COCCc1sc(S(=O)(=O)NC(=O)Nc2cc(C(F)(F)F)cc(N)n2)cc1C [Compound 85, N-{[6-Amino-4-(trifluoromethyl)pyridin-2-yl]carbamoyl}-5-(2-methoxyethyl)-4-methylthiophene-2-sulfonamide] |
| 1780 nM | COCCc1sc(S(=O)(=O)NC(=O)Nc2cc(SC)cc(C)n2)cc1C [Compound 86, 5-(2-Methoxyethyl)-4-methyl-N-{[6-methyl-4-(methylthio)pyridin-2-yl]carbamoyl}thiophene-2-sulfonamide] |
| 500 nM | CNC(=O)Nc1cc(SC)cc(NC(=O)NS(=O)(=O)c2coc3ccccc23)n1 [Compound 89, N-({6-[(Methylcarbamoyl)amino]-4-(methylthio)pyridin-2-yl}carbamoyl)-1-benzofuran-3-sulfonamide] |
| 1060 nM | COCCc1sc(S(=O)(=O)NC(=O)Nc2cc(C(F)(F)F)cc(Cl)n2)cc1C [Compound 90, N-{[6-chloro-4-(trifluoromethyl)pyridin-2-yl]carbamoyl}-5-(2-methoxyethyl)-4-methylthiophene-2-sulfonamide] |
| 2160 nM | COCCc1sc(S(=O)(=O)NC(=O)Nc2cc(C(F)(F)F)cc(C(=O)OC)n2)cc1C [Compound 91, Methyl-6-[({[5-(2-methoxyethyl)-4-methyl-2-thienyl]sulfonyl}carbamoyl)amino]-4-(trifluoromethyl)pyridine-2-carboxylate] |
| 844 nM | CC(=O)OCCc1sc(S(=O)(=O)NC(=O)Nc2cc(C(F)(F)F)cc(Cl)n2)cc1C [Compound 93, 2-{5-[({[6-chloro-4-(trifluoromethyl)pyridin-2-yl]carbamoyl}amino)sulfonyl]-3-methyl-2-thienyl}ethyl acetate] |
| 1600 nM | CNC(=O)Nc1cc([S+](C)[O-])cc(NC(=O)NS(=O)(=O)c2cc(C)c(CCOC)s2)n1 (centres unmarked) [Compound 94, 5-(2-Methoxyethyl)-4-methyl-N-({6-[(methylcarbamoyl)amino]-4-(methylsulfinyl)pyridin-2-yl}carbamoyl)thiophene-2-sulfonamide] |
| 527 nM | COCCc1sc(S(=O)(=O)NC(=O)Nc2cc(C(F)(F)F)cc(C)n2)cc1C [Compound 96, 5-(2-methoxyethyl)-4-methyl-N-{[6-methyl-4-(trifluoromethyl)pyridin-2-yl]carbamoyl}thiophene-2-sulfonamide] |
| 2290 nM | COC(=O)c1cc(C(F)(F)F)cc(NC(=O)NS(=O)(=O)c2csc(C)c2)n1 [Compound 98, Methyl-6-({[(5-methyl-3-thienyl)sulfonyl]carbamoyl}amino)-4-(trifluoromethyl)pyridine-2-carboxylate] |
| 920 nM | CCOC(=O)c1cc(NC(=O)NC)nc(NC(=O)NS(=O)(=O)c2cc(C)c(CCOC)s2)c1 [Compound 99, Ethyl-2-[({[5-(2-methoxyethyl)-4-methyl-2-thienyl]sulfonyl}carbamoyl)amino]-6-[(methylcarbamoyl)amino]isonicotinate] |
| 2610 nM | COC(=O)c1cc(C(F)(F)F)cc(NC(=O)NS(=O)(=O)c2cc(C)c(CCO)s2)n1 [Compound 105, Methyl-6-[({[5-(2-hydroxyethyl)-4-methyl-2-thienyl]sulfonyl}carbamoyl)amino]-4-(trifluoromethyl)pyridine-2-carboxylate] |
| 1500 nM | Cc1cc(S(=O)(=O)NC(=O)Nc2cc(C(F)(F)F)cc(CO)n2)sc1CCO [Compound 106, 5-(2-Hydroxyethyl)-N-{[6-(hydroxymethyl)-4-(trifluoromethyl)pyridin-2-yl]carbamoyl}-4-methylthiophene-2-sulfonamide] |
| 2550 nM | CNC(=O)Nc1cc(C(N)=NO)cc(NC(=O)NS(=O)(=O)c2cc(C)c(CCOC)s2)n1 [Compound 107, N′-Hydroxy-2-[({[5-(2-methoxyethyl)-4-methyl-2-thienyl]sulfonyl}carbamoyl)amino]-6-[(methylcarbamoyl)amino]pyridine-4-carboximidamide] |
| 1870 nM | CNC(=O)Nc1cc(-c2noc(C)n2)cc(NC(=O)NS(=O)(=O)c2cc(C)c(CCOC)s2)n1 [Compound 109, 5-(2-Methoxyethyl)-4-methyl-N-({6-[(methylcarbamoyl)amino]-4-(5-methyl-1,2,4-oxadiazol-3-yl)pyridin-2-yl}carbamoyl)thiophene-2-sulfonamide] |
| 345 nM | CC(=O)OCCc1sc(S(=O)(=O)NC(=O)Nc2cc(C(F)(F)F)cc(C)n2)cc1C [Compound 111, 2-{3-methyl-5-[({[6-methyl-4-(trifluoromethyl)pyridin-2-yl]carbamoyl}amino)sulfonyl]-2-thienyl}ethyl acetate] |
| 800 nM | COCCc1sc(S(=O)(=O)NC(=O)Nc2cc(SC)cc(C(N)=O)n2)cc1C [Compound 112, 6-[({[5-(2-Methoxyethyl)-4-methyl-2-thienyl]sulfonyl}carbamoyl)amino]-4-(methylthio)pyridine-2-carboxamide] |
| 840 nM | CNC(=O)c1cc(SC)cc(NC(=O)NS(=O)(=O)c2cc(C)c(CCOC)s2)n1 [Compound 113, 6-[({[5-(2-Methoxyethyl)-4-methyl-2-thienyl]sulfonyl}carbamoyl)amino]-N-methyl-4-(methylthio)pyridine-2-carboxamide] |
| 515 nM | Cc1cc(C(F)(F)F)cc(NC(=O)NS(=O)(=O)c2cc(C)c(CCO)s2)n1 [Compound 114, 5-(2-Hydroxyethyl)-4-methyl-N-{[6-methyl-4-(trifluoromethyl)pyridin-2-yl]carbamoyl}thiophene-2-sulfonamide] |
| 1480 nM | COCCc1sc(S(=O)(=O)NC(=O)Nc2cc(OC)cc(-c3noc(C)n3)n2)cc1C [Compound 116] |
